Data from ChEMBL document CHEMBL1129613, “Design, synthesis, and biological evaluation of ellipticine-estradiol conjugates” (J Med Chem, 1996).

Columns and labels:
[1] = tested on: PC-3; test: Cytotoxic effect on growth inhibition of prostate cancer PC-3 cells; type: functional; conditions: Homo sapiens
[2] = tested on: MCF7; test: Cytotoxic effect on growth inhibition of breast cancer MCF-7 cells; type: functional; conditions: Homo sapiens
[3] = target: DNA topoisomerase 2-alpha (Homo sapiens, UniProt P11388); test: Inhibitory activity against topoisomerase II determined in catenation inhibition assay
[4] = tested on: U-251; test: Cytotoxic effect on growth inhibition of CNS cancer U251 cells; type: functional; conditions: Homo sapiens
[5] = tested on: NCI-H322M; test: Cytotoxic effect on nonsmall cell lung cancer NCI-H322M cells; type: functional; conditions: Homo sapiens
[6] = tested on: MCF7; test: Cytotoxic effect of growth inhibition of breast cancer MCF-7/ADR-RES cells; type: functional; conditions: Homo sapiens
[7] = tested on: LOX IMVI; test: Cytotoxic effect on growth inhibition of melanoma LOX IMVI cells; type: functional; conditions: Homo sapiens
[8] = tested on: Hs-578T; test: Cytotoxic effect on growth inhibition of breast cancer HS 578T cells; type: functional; conditions: Homo sapiens
[9] = tested on: SN12C; test: Cytotoxic effect on growth inhibition of renal cancer SN12C cells; type: functional; conditions: Homo sapiens
[10] = tested on: IGROV-1; test: Cytotoxic effect on growth inhibition of ovarian cancer IGROVI cells; type: functional; conditions: Homo sapiens
[11] = target: Estrogen receptor (Rattus norvegicus) (UniProt P06211+Q62986); test: Relative binding affinity for estrogen receptor; type: protein assay
[12] = tested on: MDA-MB-231; test: Cytotoxic effect on growth inhibition of breast cancer MDA-MB-231/ATCC cells; type: functional; conditions: Homo sapiens
[13] = tested on: HCT-116; test: Cytotoxic effect on growth inhibition of colon cancer HCT116 cells; type: functional; conditions: Homo sapiens
[14] = tested on: MOLT-4; test: Cytotoxic effect on leukemia MOLT-4 cells; type: functional; conditions: Homo sapiens
[15] = tested on: MOLT-4; test: Cytotoxic effect on growth inhibition of leukemia MOLT-4 cells; type: functional; conditions: Homo sapiens
[16] = tested on: NCI-H322M; test: Cytotoxic effect on growth inhibition of nonsmall cell lung cancer NCI-H322M cells; type: functional; conditions: Homo sapiens
[17] = tested on: IGROV-1; test: Cytotoxic effect on ovarian cancer IGROVI cells; type: functional; conditions: Homo sapiens

Chain of DNA topoisomerase 2-alpha (P11388 whole entry): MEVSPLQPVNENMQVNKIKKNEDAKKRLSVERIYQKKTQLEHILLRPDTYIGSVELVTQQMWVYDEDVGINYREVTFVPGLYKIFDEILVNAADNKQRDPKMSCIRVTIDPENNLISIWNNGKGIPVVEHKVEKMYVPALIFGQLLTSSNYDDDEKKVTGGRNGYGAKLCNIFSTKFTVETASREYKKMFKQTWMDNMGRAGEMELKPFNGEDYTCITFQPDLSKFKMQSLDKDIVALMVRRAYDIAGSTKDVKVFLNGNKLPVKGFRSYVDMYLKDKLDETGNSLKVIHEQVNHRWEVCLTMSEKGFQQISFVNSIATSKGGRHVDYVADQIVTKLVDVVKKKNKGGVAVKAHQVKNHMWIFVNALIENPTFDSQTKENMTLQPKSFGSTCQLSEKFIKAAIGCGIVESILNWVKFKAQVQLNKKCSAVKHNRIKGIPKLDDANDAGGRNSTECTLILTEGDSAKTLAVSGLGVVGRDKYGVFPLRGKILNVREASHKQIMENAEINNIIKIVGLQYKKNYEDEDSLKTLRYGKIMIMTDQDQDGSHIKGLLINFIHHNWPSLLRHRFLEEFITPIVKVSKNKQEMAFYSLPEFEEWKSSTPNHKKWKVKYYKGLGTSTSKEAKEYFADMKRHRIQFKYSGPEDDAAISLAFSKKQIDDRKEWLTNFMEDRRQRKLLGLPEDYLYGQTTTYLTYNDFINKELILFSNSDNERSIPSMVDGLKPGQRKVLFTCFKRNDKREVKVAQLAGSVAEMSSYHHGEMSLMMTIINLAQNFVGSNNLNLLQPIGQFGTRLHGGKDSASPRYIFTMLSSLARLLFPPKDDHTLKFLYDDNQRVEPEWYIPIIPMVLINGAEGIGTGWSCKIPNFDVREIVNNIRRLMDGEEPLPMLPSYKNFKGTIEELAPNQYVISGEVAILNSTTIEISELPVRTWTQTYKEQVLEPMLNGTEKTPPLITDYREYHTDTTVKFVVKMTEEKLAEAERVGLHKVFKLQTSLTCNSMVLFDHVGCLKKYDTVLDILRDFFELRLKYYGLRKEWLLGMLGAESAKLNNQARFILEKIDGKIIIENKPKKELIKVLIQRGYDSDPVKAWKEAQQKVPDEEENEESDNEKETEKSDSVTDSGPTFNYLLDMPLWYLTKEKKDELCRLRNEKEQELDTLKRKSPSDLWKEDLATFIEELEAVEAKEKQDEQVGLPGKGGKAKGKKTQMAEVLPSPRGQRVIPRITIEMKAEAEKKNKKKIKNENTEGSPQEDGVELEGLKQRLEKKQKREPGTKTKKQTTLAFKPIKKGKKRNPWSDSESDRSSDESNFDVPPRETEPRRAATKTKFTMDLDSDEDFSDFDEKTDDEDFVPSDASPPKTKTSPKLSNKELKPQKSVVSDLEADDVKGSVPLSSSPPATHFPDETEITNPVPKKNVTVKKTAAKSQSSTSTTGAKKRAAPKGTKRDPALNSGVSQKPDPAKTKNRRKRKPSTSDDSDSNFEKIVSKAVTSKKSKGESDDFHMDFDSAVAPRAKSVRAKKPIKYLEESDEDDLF

Q: Which results are given for `Cc1c2c(c(C)c3c1[nH]c1ccccc13)CN(C(=O)NCCCCCCNC(=O)C[C@]1(O)CC[C@H]3[C@@H]4CCc5cc(O)ccc5[C@H]4CC[C@@]31C)C=C2`?
A: GI50 [1]: 3.51 µM; GI50 [2]: 3.39 µM; IC50 [3]: 24.1 µM; GI50 [4]: 7.64 µM; GI50 [5]: 2.68 µM; GI50 [6]: 9.96 µM; GI50 [7]: 7.97 µM; GI50 [8]: 16.6 µM; GI50 [9]: 9.56 µM; GI50 [10]: 8.53 µM; relative binding affinity (RBA) [11]: 0.132; GI50 [12]: 19.7 µM; GI50 [13]: 3.55 µM; GI50 [14]: 2.9 µM

Q: With `Cc1c2ccncc2c(C)c2c1[nH]c1ccc(C(=O)NCCCCCCNC(=O)C[C@]3(O)CC[C@H]4[C@@H]5CCc6cc(O)ccc6[C@H]5CC[C@@]43C)cc12` as the compound, how does the GI50 [1] read?
A: Its GI50 is 74 µM.

Q: What about the IC50 [3] of the same compound?
A: The IC50 was greater than 200 µM.

Q: What about the GI50 [4] of the same compound?
A: Its GI50 is 55.9 µM.

Q: What about the GI50 [6] of the same compound?
A: The GI50 was greater than 100 µM.

Q: And the GI50 [7]?
A: The GI50 was 51.4 µM.

Q: What about the GI50 [15] of the same compound?
A: Its GI50 is 38.3 µM.

Q: What about the GI50 [8] of the same compound?
A: Its GI50 is greater than 100 µM.

Q: What about the GI50 [9] of the same compound?
A: The GI50 was greater than 100 µM.

Q: What about the GI50 [10] of the same compound?
A: The GI50 was greater than 100 µM.

Q: What about the relative binding affinity (RBA) [11] of the same compound?
A: Its relative binding affinity (RBA) is 0.303.

Q: And the GI50 [12]?
A: Its GI50 is 34.7 µM.

Q: And the GI50 [13]?
A: The GI50 was 31.2 µM.

Q: What about the GI50 [16] of the same compound?
A: Its GI50 is 28 µM.

Q: How did the GI50 [2] turn out when `Cc1c2ccncc2c(C)c2c1[nH]c1ccccc12` [ELLIPTECINE] was run?
A: The GI50 was 0.71 µM.

Q: And the GI50 [4]?
A: The GI50 was 0.93 µM.

Q: What about the GI50 [6] of the same compound?
A: The GI50 was 0.74 µM.

Q: And the GI50 [7]?
A: The GI50 was 0.56 µM.

Q: What about the GI50 [9] of the same compound?
A: Its GI50 is 0.73 µM.

Q: What about the GI50 [10] of the same compound?
A: Its GI50 is 0.86 µM.

Q: What about the GI50 [13] of the same compound?
A: Its GI50 is 0.29 µM.

Q: What about the GI50 [14] of the same compound?
A: Its GI50 is 0.38 µM.

Q: What about the GI50 [16] of the same compound?
A: The GI50 was 0.31 µM.

Q: For `CC(C)(C)OC(=O)NCCCCCCNC(=O)C[C@]1(O)CC[C@H]2[C@@H]3CCc4cc(O)ccc4[C@H]3CC[C@@]21C`, which relative binding affinity (RBA) [11] is on record?
A: The relative binding affinity (RBA) was 0.056.

Q: How did the relative binding affinity (RBA) [11] turn out when `C[C@]12CC[C@@H]3c4ccc(O)cc4CC[C@H]3[C@@H]1CC[C@@]2(O)CC(=O)O` was run?
A: Its relative binding affinity (RBA) is 0.039.

Q: For `C[C@]12CC[C@@H]3c4ccc(O)cc4CC[C@H]3[C@@H]1CC[C@@]2(O)CC(=O)NCCCCCCN`, which relative binding affinity (RBA) [11] is on record?
A: Its relative binding affinity (RBA) is 0.041.

Q: With `Cc1c2cnccc2c(C)c2c1c1ccccc1n2CC(=O)NCCCCCCNC(=O)C[C@]1(O)CC[C@H]2[C@@H]3CCc4cc(O)ccc4[C@H]3CC[C@@]21C` as the compound, how does the GI50 [1] read?
A: Its GI50 is 57.1 µM.

Q: And the GI50 [2]?
A: Its GI50 is greater than 100 µM.

Q: And the IC50 [3]?
A: The IC50 was greater than 200 µM.

Q: And the GI50 [4]?
A: The GI50 was 72.4 µM.

Q: And the GI50 [6]?
A: The GI50 was greater than 100 µM.

Q: And the GI50 [7]?
A: The GI50 was 50.9 µM.

Q: And the GI50 [8]?
A: The GI50 was 46.8 µM.

Q: What about the GI50 [9] of the same compound?
A: The GI50 was greater than 100 µM.

Q: What about the GI50 [17] of the same compound?
A: Its GI50 is greater than 100 µM.

Q: And the GI50 [12]?
A: The GI50 was greater than 100 µM.

Q: And the GI50 [13]?
A: The GI50 was 39.9 µM.

Q: What about the GI50 [14] of the same compound?
A: Its GI50 is 46.3 µM.

Q: What about the GI50 [16] of the same compound?
A: Its GI50 is 71.4 µM.

Q: How did the relative binding affinity (RBA) [11] turn out when `CCOC(=O)C[C@]1(O)CC[C@H]2[C@@H]3CCc4cc(O)ccc4[C@H]3CC[C@@]21C` was run?
A: The relative binding affinity (RBA) was 3.66.
